Reference: ChEMBL document CHEMBL4765306, “Design, synthesis and biological evaluation of novel naturally-inspired multifunctional molecules for the management of Alzheimer's disease” (Eur J Med Chem, 2020)
Activity calls are given as the source filed them. No cut-off for these calls is given here.

What was measured:
Acetylcholinesterase [1] = target: T1, Acetylcholinesterase (Homo sapiens, UniProt P22303); assay: Inhibition of recombinant human erythrocyte AChE using acetylthiocholine iodide as substrate preincubated for 30 mins followed by substrate addition and measured after 30 mins by spectrophotometry based Ellman's method
T1 sequence (P22303 whole entry): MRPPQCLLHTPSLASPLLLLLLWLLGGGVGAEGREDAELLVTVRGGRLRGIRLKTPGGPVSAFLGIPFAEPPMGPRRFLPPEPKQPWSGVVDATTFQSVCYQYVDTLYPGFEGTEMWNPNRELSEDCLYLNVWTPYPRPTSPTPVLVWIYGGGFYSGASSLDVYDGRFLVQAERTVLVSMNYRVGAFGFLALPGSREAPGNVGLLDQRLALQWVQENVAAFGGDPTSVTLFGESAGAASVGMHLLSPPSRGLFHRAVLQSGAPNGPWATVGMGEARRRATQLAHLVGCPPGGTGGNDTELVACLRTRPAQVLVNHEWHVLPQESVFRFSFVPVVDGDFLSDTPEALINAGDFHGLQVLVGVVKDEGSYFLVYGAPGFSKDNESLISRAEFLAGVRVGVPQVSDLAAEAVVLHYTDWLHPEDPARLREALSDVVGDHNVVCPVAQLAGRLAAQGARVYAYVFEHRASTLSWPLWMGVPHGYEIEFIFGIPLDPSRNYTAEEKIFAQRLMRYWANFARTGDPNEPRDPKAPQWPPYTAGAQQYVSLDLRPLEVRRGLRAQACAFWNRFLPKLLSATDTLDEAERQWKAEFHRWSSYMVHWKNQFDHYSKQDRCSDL

[2] = target: Cholinesterase (Equus caballus) (UniProt P81908); assay: Inhibition of […] equine serum BuChE at 20 uM using butyryl thiocholine iodide as substrate preincubated for 30 mins followed by substrate addition and measured after 30 mins by spectrophotometry based Ellman's method relative to control; assay type: cell-free; settings: time 60.0 min
Chain of Cholinesterase (Equus caballus) (P81908 whole entry): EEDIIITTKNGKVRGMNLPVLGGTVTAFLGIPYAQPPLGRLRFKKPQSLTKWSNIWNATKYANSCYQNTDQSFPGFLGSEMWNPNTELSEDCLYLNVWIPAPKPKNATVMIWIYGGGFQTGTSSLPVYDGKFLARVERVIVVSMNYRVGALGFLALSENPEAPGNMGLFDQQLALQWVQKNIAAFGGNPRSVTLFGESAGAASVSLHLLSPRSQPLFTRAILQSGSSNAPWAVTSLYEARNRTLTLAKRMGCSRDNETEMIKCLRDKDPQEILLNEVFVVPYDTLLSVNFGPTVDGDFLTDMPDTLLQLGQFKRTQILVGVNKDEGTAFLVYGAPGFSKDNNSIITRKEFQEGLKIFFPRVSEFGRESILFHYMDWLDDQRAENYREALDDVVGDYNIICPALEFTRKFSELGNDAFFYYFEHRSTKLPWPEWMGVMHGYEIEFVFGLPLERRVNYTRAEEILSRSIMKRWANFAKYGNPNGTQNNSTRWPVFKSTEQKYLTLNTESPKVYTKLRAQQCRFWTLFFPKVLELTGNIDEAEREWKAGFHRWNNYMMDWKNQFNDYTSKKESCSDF

Homo sapiens = organism: Homo sapiens; assay: Disruption of human amyloid beta 1 to 42 assessed as effect on amyloid beta 1 to 42 morphology at 1.58 uM incubated for 10 days by atomic force microscopic analysis; settings: time 10.0 day
Mus musculus [3] = assay: Memory enhancement effect in scopolamine-induced Swiss albino mouse model of amnesia assessed as increase in spontaneous alteration at 5 mg/kg, po administered for 7 days and observed after 30 mins before scopolamine treatment and measured after 15 mins by Y-maze test; assay type: functional, organism-based; settings: time 7.0 day
Mus musculus [4] = assay: Memory enhancement effect in scopolamine-induced Swiss albino mouse model of amnesia assessed as effect on total arm entries at 5 mg/kg, po administered for 7 days and observed after 30 mins before scopolamine treatment and measured after 15 mins by Y-maze test; assay type: functional, organism-based; settings: time 7.0 day
[5] = Antioxidant activity assessed as DPPH radical scavenging activity at 20 uM incubated for 25 mins in shaker relative to control; assay type: functional
[6] = Antioxidant activity assessed as DPPH radical scavenging activity incubated for 25 mins in shaker; assay type: functional
Acetylcholinesterase [7] = target: T1, Acetylcholinesterase; assay: Inhibition of AChE (unknown origin) at 20 uM relative to control
[8] = target: Cholinesterase (Homo sapiens) (UniProt P06276); assay: Inhibition of BuChE (unknown origin) at 20 uM relative to control
Chain of Cholinesterase (Homo sapiens) (P06276 whole entry): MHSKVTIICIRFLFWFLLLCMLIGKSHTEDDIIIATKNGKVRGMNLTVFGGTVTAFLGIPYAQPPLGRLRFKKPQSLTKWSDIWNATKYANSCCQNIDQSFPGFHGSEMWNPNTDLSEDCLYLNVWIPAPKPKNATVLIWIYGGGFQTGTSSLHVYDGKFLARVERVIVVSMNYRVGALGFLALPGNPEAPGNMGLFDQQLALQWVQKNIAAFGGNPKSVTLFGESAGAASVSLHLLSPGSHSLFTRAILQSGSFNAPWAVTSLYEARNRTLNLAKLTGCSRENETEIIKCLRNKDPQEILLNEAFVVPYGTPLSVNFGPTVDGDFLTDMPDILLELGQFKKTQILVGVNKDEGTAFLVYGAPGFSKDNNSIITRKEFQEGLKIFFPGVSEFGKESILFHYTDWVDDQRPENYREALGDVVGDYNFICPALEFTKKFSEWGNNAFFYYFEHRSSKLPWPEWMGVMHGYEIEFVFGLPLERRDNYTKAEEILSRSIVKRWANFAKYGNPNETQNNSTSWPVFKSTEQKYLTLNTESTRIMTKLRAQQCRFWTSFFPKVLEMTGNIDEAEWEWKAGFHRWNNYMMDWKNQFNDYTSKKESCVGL

Acetylcholinesterase [9] = target: T1, Acetylcholinesterase; assay: Inhibition of recombinant human erythrocyte AChE at 20 uM using acetylthiocholine iodide as substrate preincubated for 30 mins followed by substrate addition and measured after 30 mins by spectrophotometry based Ellman's method relative to control; settings: time 60.0 min
Mus musculus [10] = assay: Memory enhancement effect in scopolamine-induced Swiss albino mouse model of amnesia assessed as increase in spontaneous alteration at 12.5 to 25 mg/kg, po administered for 7 days and observed after 30 mins before scopolamine treatment and measured after 15 mins by Y-maze test; assay type: functional, organism-based; settings: dose 12.5-25 mg/kg, time 7.0 day
Mus musculus [11] = assay: Memory enhancement effect in scopolamine-induced Swiss albino mouse model of amnesia assessed as effect on total arm entries at 12.5 to 25 mg/kg, po administered for 7 days and observed after 30 mins before scopolamine treatment and measured after 15 mins by Y-maze test; assay type: functional, organism-based; settings: dose 12.5-25 mg/kg, time 7.0 day
Mus musculus [12] = assay: Ex vivo inhibition of AChE in brain of scopolamine-induced Swiss albino mouse model of amnesia at 12.5 to 25 mg/kg, po administered for 7 days and observed after 30 mins before scopolamine treatment and measured after 15 mins using acetylthiocholine iodide as substrate by Ellman's method; assay type: functional, organism-based; settings: dose 12.5-25 mg/kg, time 7.0 day
Mus musculus [13] = assay: Ex vivo inhibition of BChE in brain of scopolamine-induced Swiss albino mouse model of amnesia at 12.5 to 25 mg/kg, po administered for 7 days and observed after 30 mins before scopolamine treatment and measured after 15 mins using butyryl thiocholine iodide as substrate by Ellman's method; assay type: functional, organism-based; settings: dose 12.5-25 mg/kg, time 7.0 day
Mus musculus [14] = assay: Ex vivo antioxidant activity in brain of scopolamine-induced Swiss albino mouse model of amnesia assessed as increase in SOD level at 12.5 to 25 mg/kg, po administered for 7 days and observed after 30 mins before scopolamine treatment and measured after 15 mins; assay type: functional, organism-based; settings: dose 12.5-25 mg/kg, time 7.0 day
Mus musculus [15] = assay: Ex vivo antioxidant activity in brain of scopolamine-induced Swiss albino mouse model of amnesia assessed as increase in CAT level at 12.5 to 25 mg/kg, po administered for 7 days and observed after 30 mins before scopolamine treatment and measured after 15 mins; assay type: functional, organism-based; settings: dose 12.5-25 mg/kg, time 7.0 day
Mus musculus [16] = assay: Ex vivo antioxidant activity in brain of scopolamine-induced Swiss albino mouse model of amnesia assessed as decrease in MDA level at 12.5 to 25 mg/kg, po administered for 7 days and observed after 30 mins before scopolamine treatment and measured after 15 mins; assay type: functional, organism-based; settings: dose 12.5-25 mg/kg, time 7.0 day
Cholinesterase = Cholinesterase (Equus caballus, UniProt P81908); assay: Inhibition of […] equine serum BuChE using butyryl thiocholine iodide as substrate preincubated for 30 mins followed by substrate addition and measured after 30 mins by spectrophotometry based Ellman's method; assay type: cell-free
Chain of Cholinesterase (P81908 whole entry): as the sequence (P81908 whole entry) above

[17] = Metal chelating activity assessed as Fe3+-compound complex formation at 300 uM measured for 30 mins by UV-Visible spectrophotometric method
[18] = Metal chelating activity assessed as Fe3+-compound complex formation at 300 uM measured for 30 mins by MS-MS analysis

Row | Structure (SMILES) | IC50 (Acetylcholinesterase [1]) | inhibition [2] | Activity [5] | IC50 [6] | also measured
1 | COc1cc(/C=C/C(=O)NCC(=O)Nc2cccc(Br)c2)ccc1O | 13.1 µM | 36.6% | – | – | –
2 | COc1cc(/C=C/C(=O)NCC(=O)Nc2ccccc2F)ccc1O | 17.2 µM | 31.9% | – | – | –
3 | COc1cc(/C=C/C(=O)N2CCN(c3ccccc3)CC2)ccc1O | 29.3 µM | 37% | – | – | –
4 | COc1cc2c(cc1OC)C(=O)C(CC1CCN(Cc3ccccc3)CC1)C2 (configuration not stated) | – | – | – | – | Activity (Homo sapiens): inactive; Activity (Mus musculus [3]): Active; Activity (Mus musculus [4]): Active
5 | COc1cc(/C=C/C(=O)NCC(=O)Nc2ccc(Cl)cc2)ccc1O | 3.43 µM | 46.9% | 16.7% | 101 µM | –
6 | COc1cc(/C=C/C(=O)O)ccc1O [FERULATE] | – | 19.7% | 28.6% | 56.5 µM | inhibition (Acetylcholinesterase [7]): < 20%; inhibition [8]: < 20%; inhibition (Acetylcholinesterase [9]): < 10%; Activity (Homo sapiens): Active; Activity (Mus musculus [10]): inactive; Activity (Mus musculus [11]): inactive; Activity (Mus musculus [12]): inactive; Activity (Mus musculus [13]): inactive; Activity (Mus musculus [14]): Active; Activity (Mus musculus [15]): Active; Activity (Mus musculus [16]): Active
7 | COc1cc(/C=C/C(=O)NCC(=O)Nc2ccc(C)cc2)ccc1O | 12.6 µM | 35.6% | – | – | –
8 | COc1cc(/C=C/C(=O)N2CCN(c3ccc(Cl)cc3)CC2)ccc1O | 11.1 µM | 33.2% | – | – | –
9 | COc1cc(/C=C/C(=O)NCC(=O)Nc2cccc(F)c2)ccc1O | 22.1 µM | 38.3% | – | – | –
10 | COc1cccc(NC(=O)CNC(=O)/C=C/c2ccc(O)c(OC)c2)c1 | 2.42 µM | 55.4% | 19.1% | 94.3 µM | IC50 (Cholinesterase): 15.3 µM; Activity [17]: Active; Activity [18]: Active
11 | COc1cc(/C=C/C(=O)NCC(=O)Nc2ccc(F)cc2)ccc1O | 12.9 µM | 42.2% | – | – | –
12 | COc1cc(/C=C/C(=O)NCC(=O)Nc2ccc3ncccc3c2)ccc1O | 4.89 µM | 57.7% | 18.6% | 77.6 µM | IC50 (Cholinesterase): 14.3 µM
13 | COc1cc(/C=C/C(=O)NCC(=O)Nc2ccccc2OC)ccc1O | 5.75 µM | 43.3% | – | – | –
14 | COc1cc(/C=C/C(=O)NCC(=O)Nc2cccc(C(F)(F)F)c2)ccc1O | 9.31 µM | 34.9% | – | – | –
15 | COc1ccc(N2CCN(C(=O)/C=C/c3ccc(O)c(OC)c3)CC2)cc1 | 12 µM | 44.7% | – | – | –
16 | COc1cc(/C=C/C(=O)NCC(=O)Nc2cccc(Cl)c2)ccc1O | 5.68 µM | 48.5% | 12.7% | 108 µM | –
